In PMC6201930 (PLoS ONE, 2018):
Values joined by “and” are separate entries in the source; they are usually repeats but may differ in a detail not shown here. Identical values can stand only once. Like-named read-outs stand apart in the source and are kept apart here.

How the values were obtained:
[1] = tested on: zebrafish neuromasts (hair cells); assay: Neuromast toxicity assay (DASPEI staining); conditions: read-out: Neuromast CC50; individual determinations (S1 File)
Method: All neuromast cytotoxicity assays were done at Biobide–BBD Biophenix SL (Gipuzkoa, Spain). […] Compounds were tested at 5 doses. After 24 hours of exposure embryos were incubated in DASPEI (2-(4-(dimethylamino)styryl) -N-Ethylpyridinium Iodide) for neuromast staining. Images of each embryo were taken and neuromasts counted. A compound was classified as ototoxic when the number of neuromasts in the treated group was less than that in the untreated control group (One Way ANOVA, multiple comparisons vs. vehicle).

[2] = tested on: fLuc mRNA harboring a UGA nonsense mutation at codon 190 (fLuc-190-NS); format: biochemical, rabbit
Source text: ThefLuc-190-NS assay is an in vitro rabbit reticulocyte lysate translation of an fLuc mRNA harboring a UGA nonsense mutation at codon 190 (fLuc-190-NS). It is believed that positively charged aminoglycosides are poorly taken up by cells, and we used this cell-free readthrough assay to eliminate the potential variable of cell uptake when measuring readthrough potency. […] Readthrough protein was detected using a HA-HIS MSD immunoassay described previously.
This cell-free translation assay used synthetic LUC mRNAs harboring an EMCV IRES and LUC codon 190-UGA premature stop codon prepared using the MegaScript in vitro transcription kit (Ambion). Translation reactions were done with the Rabbit Reticulocyte Lysate System (Promega) with 100 ng RNA and increasing concentrations of aminoglycosides. The amount of luminescence produced was determined after approximately 4 hours using a Viewlux CCD imager (Perkin-Elmer). Fold suppression over background was calculated as (aminoglycoside light units/PBS light units).

[3] = tested on: tGFP-CFTR542X-HA-HIS construct (codon 542 UGA) in 293H cells; assay: tGFP-542X readthrough assay (HA-HIS MSD immunoassay); format: cell-based, human
[4] = tested on: p53 R213* UGA premature termination codon in HDQ-P1 mammary carcinoma cells; assay: HDQ-p53UGA213 readthrough assay (full-length p53, MSD immunoassay); format: cell-based, human; conditions: for HDQ-p53UGA213 (Maxfold): maximum readthrough activity above background
Method: We utilized HDQ-P1 mammary carcinoma cells, which are homozygous for R213*, a UGA premature termination codon in the gene for the tumor suppressor protein p53 [30]. […] Western blot hybridization and Meso Scale Discovery (MSD) immunoassay detection of p53 were done as previously described. […] Cells (45K per well) were grown in 96-well plates and treated with compounds for 24 hours. […] Cells were lysed with 60 μl per well of lysis buffer (20 mM Tris-HCL, pH 7.5, 1 mM EGTA, 1 mM EDTA,150 mM Nacl, 0.5% Triton X100) for one hour at room temperature and 30 μl of lysate per well were transferred to the coated plate and incubated overnight at 4 °C. […] Plates were then washed three times with PBS-T and 30 μl of 0.25 μ/ml goat anti-rabbit IgG-Sulfo-tag antibody (MSD) in TBS-C was added and incubated for 1 hour at room temperature. Plates were then washed three times with PBS-T and 150 μl read buffer (MSD) was added. Plates were read immediately in a SECTOR S 600 (MSD).

[5] = Pharmacokinetics of aminoglycosides in the rat; conditions: sc, 10 mg/kg
Method: Test compounds were dissolved in PBS at 1 mg/mL and administered subcutaneously in a volume of 10 mL/kg to deliver a dose of 10 mg/kg. […] At 24 hours, the rat was euthanized and in addition to blood, quadriceps and kidney tissues were collected for subsequent analysis.
Blood was collected into tubes containing dipotassium ethylenediaminetetraacetic acid (K2 EDTA) as the anticoagulant and rotated at room temperature until the blood was centrifuged and the plasma recovered for subsequent analysis by liquid chromatography with tandem mass spectroscopy (LC-MS/MS). Noncompartmental toxicokinetic parameters were determined using Phoenix WinNonLin version 6.1 (Pharsight Corporation, Carey NC).
The concentrations of test compound in plasma, kidney and muscle were quantified by liquid chromatography-tandem mass spectrometry (LC-MS/MS). Briefly, the plasma and tissue homogenate samples were treated with acetonitrile-methanol mixture containing an internal standard that is a close analog of the test compounds. The treated plasma and […] homogenate samples were centrifuged and the supernatant was collected and analyzed using electro-spray LC-MS/MS.

[6] = tested on: activated human peripheral blood mononuclear cells (PBMCs); assay: Cytotoxicity in stimulated PBMCs (CellTitre-Glo ATP); conditions: for CC50: read-out: Stimulated PBMC CC50, individual determinations (S1 File)
Source text: (§1) When considering compounds for potential readthrough therapy it is important to monitor cellular and animal safety. In order to determine the most promising compounds to further evaluate in in vivo safety, we measured cytotoxicity in two different cell types. We used activated human peripheral blood mononuclear cells (PBMCs) (Table 2 and Fig 2D and 2E). PBMCs are a primary cell that when activated with phytohaemagglutinin (PHA) expand quickly and are commonly used as an in vitro surrogate for rapidly growing cells in the human body to evaluate cytotoxicity. Prior to advancing compounds into human studies, safety evaluation in rodents is performed. As an in vitro surrogate for rodent toxicity, we used primary mouse myoblasts.
(§2) Frozen human Peripheral Blood Mononuclear Cells (PBMCs) were obtained from […] (Alameda, CA, Cat# PB003F) from a single donor. […] Plates were incubated at 37°C with 5% CO2 for 4 hours prior to compound treatment. Compounds were serially diluted and added to the plates. Plates were incubated at 37°C, 5% CO2 incubator, for 72 hours prior to determinations of ATP levels. Cell viability was determined using a chemiluminescent assay to monitor adenosine triphosphate (ATP) levels in live cells (CellTitre-Glo; CTG; Promega, Cat#G7571). Methods were performed per the manufacturer’s instructions.

[7] = as above; conditions: human
Source text: as §1, §2

[8] = AVERAGE (S1 File), unit not given for EC5X
[9] = individual experiments (S1 File)
[10] = individual experiments (S1 File), unit not printed for EC5X (EC2X of the sheet in uM)
[11] = maximum readthrough above background, average ± SD
[12] = concentration required to double the level of full-length p53 protein, average ± SD, at least three experiments, highest concentration 300 μM
[13] = Stimulated PBMC (CC50), PHA/IL-2 stimulated, 72 hours, average ± SD
[14] = Stimulated PBMC CC50, AVERAGE (S1 File)

## CN[C@@H]1[C@@H](O)[C@@H](O[C@@H]2[C@@H](O)[C@H](O[C@H]3O[C@H](CO)[C@@H](O)[C@H](O)[C@H]3N)[C@@H](N)C[C@H]2N)OC[C@]1(C)O (stereo in doubt) [Gentamicin X2, gentamicin X2]
[1]
  CC50: 8.7 µM and 19 µM
[2]; AVERAGE (S1 File)
  fLuc-190-NS EC2X: 0.0288 µM
  fLuc-190-NS MaxFold: 195.3
[2]; [8]
  fLuc-190-NS EC5X: 0.0696
[2]; cell-free, average ± SD
  fLuc-190-NS EC2X: 0.029 ± 0.009 µM
  fLuc-190-NS MaxFold: 195 ± 18 fold
[2]; [9]
  fLuc-190-NS EC2X: 0.0300 µM and 0.0373 µM and 0.0192 µM
  fLuc-190-NS MaxFold: 193.99 and 177.60 and 214.25
[2]; [10]
  fLuc-190-NS EC5X: 0.0904 and 0.0449 and 0.0734
[3]; AVERAGE (S1 File)
  tGFP-542X EC2X: 18.6 µM
  tGFP-542X Maxfold: 135.0
[3]; [8]
  tGFP-542X EC5X: 101.5
[3]; [9]
  tGFP-542X EC2X: 18.5 µM and 10.25 µM and 10.65 µM and 11.55 µM and 13.08 µM and 5.70 µM and 9.22 µM and 17.7 µM and 40.0 µM and 49.3 µM
  tGFP-542X Maxfold: 235 and 85
[3]; [10]
  tGFP-542X EC5X: 52 and 120 and 133
[3]; [11]
  tGFP-542X Maxfold: 135 ± 87 fold
[4]; AVERAGE (S1 File)
  HDQ-p53UGA213 EC2X: 18.6 µM
  HDQ-p53UGA213 max: 39.1
[4]; [12]
  HDQ-p53UGA213 EC2X: 19 ± 6 µM
[4]; [9]
  HDQ-p53UGA213 EC2X: 19.47 µM and 16.13 µM and 19.14 µM and 12.27 µM and 19.04 µM and 21.26 µM and 22.25 µM and 17.98 µM and 6.97 µM and 32.75 µM and 17.45 µM and 17.38 µM and 19.08 µM
[4]; individual experiments (S1 File), max fold
  HDQ-p53UGA213 max: 23.4 and 60.4 and 40.4 and 95 and 8.4 and 8 and 12.7 and 10.6 and 84.8 and 5.1 and 37.4 and 60.1 and 62.2
[4]; average ± SD
  HDQ-p53UGA213 (Maxfold): 39 ± 31 fold
[5]; kidney
  concentration at 24 h: 7000 ± 1000 ng/g
[5]; plasma
  AUC: 13000 ng·h/mL
  AUC(0-t): 13000 ng·h/mL
  Cmax: 5600 ng/mL
  Tmax: 30 min
  concentration at 24 h: ≤ 1 ng/g
  half-life: 156 min
[5]; quadriceps
  concentration at 24 h: ~40 ng/g
[6]; PBMCs, compared with NB84, NB124 or G418, 95% confidence limits
  safety window (average CC50 / average EC2X): statistically better safety window
[6]
  CC50: 2590 µM and 2630 µM and 2940 µM
[7]; [13]
  CC50 at 72 h: 2.97 ± 0.533 mM
[7]; [14]
  CC50 at 72 h: 2.97 mM
[7]; Stimulated PBMC CC50, individual determinations (S1 File)
  CC50 at 72 h: 3.74 mM

## CN[C@@H]1[C@@H](O)[C@@H](O[C@@H]2[C@@H](O)[C@H](O[C@H]3O[C@H]([C@@H](C)O)[C@@H](O)[C@H](O)[C@H]3N)[C@@H](N)C[C@H]2N)OC[C@]1(C)O [G418, reference compound]
[1]
  CC50: 3.6 µM
[2]; AVERAGE (S1 File)
  fLuc-190-NS EC2X: 0.0064 µM
  fLuc-190-NS MaxFold: 53.0
[2]; [8]
  fLuc-190-NS EC5X: 0.0260
[2]; cell-free, average ± SD
  fLuc-190-NS EC2X: 0.0064 ± 0.0002 µM
  fLuc-190-NS MaxFold: 53 ± 2 fold
[2]; [9]
  fLuc-190-NS EC2X: 0.0067 µM and 0.0063 µM
  fLuc-190-NS MaxFold: 51.05 and 54.30 and 53.65
[2]; [10]
  fLuc-190-NS EC5X: 0.0261 and 0.0252 and 0.0267
[3]; 293H cells, 24 hours, average ± SD
  tGFP-542X EC2X: 9 ± 4 µM
[3]; AVERAGE (S1 File)
  tGFP-542X EC2X: 9.0 µM
  tGFP-542X Maxfold: 318.3
[3]; [8]
  tGFP-542X EC5X: 24.8
[3]; [9]
  tGFP-542X EC2X: 8 µM and 15 µM and 5 µM
  tGFP-542X Maxfold: 373 and 420 and 226 and 255
[3]; [10]
  tGFP-542X EC5X: 22 and 18 and 33 and 27
[3]; [11]
  tGFP-542X Maxfold: 318 ± 93 fold
[4]; AVERAGE (S1 File)
  HDQ-p53UGA213 EC2X: 9.3 µM
  HDQ-p53UGA213 max: 43.8
[4]; [12]
  HDQ-p53UGA213 EC2X: 9 ± 5 µM
[4]; average ± SD
  HDQ-p53UGA213 (Maxfold): 44 ± 19 fold
[5]; in vivo
  AUC: 15000 ng·h/mL
  AUC(0-t): 15000 ng·h/mL
  Cmax: 7400 ng/mL
  Tmax: 19.8 min
  half-life: 90 min
[5]; in vivo, Kidney levels, 10 mg/kg subcutaneous, 24 hours post-dose, mean ± SD of three rats
  concentration at 24 h: 12000 ± 3000 ng/g
[5]; in vivo, levels in the quadriceps, 10 mg/kg subcutaneous, 24 hours after dosing
  concentration at 24 h: ~40 ng/g
[5]; in vivo, plasma levels, 10 mg/kg subcutaneous, 24 hours after dosing, at or below lower limit of quantification
  concentration at 24 h: ≤ 1 ng/g
[6]
  CC50: 270 µM and 289 µM and 294 µM and 295 µM and 372 µM and 440 µM and 458 µM and 473 µM and 841 µM and 853 µM and 914 µM and 1060 µM
[7]; [13]
  CC50: 546 ± 286 µM
[7]; [14]
  CC50: 546 µM
